The values below come from patent US11512049B2, “Pleuromutilin 2-[(diphenylmethyl)thio] acetic acid ester with anti-drug resistant bacteria activity and a method of preparing the same” (SHAANXI UNIVERSITY OF SCIENCE AND TECHNOLOGY, priority 2021, dated 2022).

Type in all cases: cell-based
What all share (conditions): for Zone of inhibition: 30 μg/tablet paper, 37° C., 24 h, ≥17 mm sensitive, 15-16 mm intermediary, ≤14 mm drug resistance; for Inhibitory effect (in words): summary of FIGS. 1-3 and Table 1

Assay [1] concerns MRSA 18-171 (multi-resistant Staphylococcus aureus 171). Briefly: Paper diffusion method drug sensitivity test, MRSA 18-171. As for the experimental part:
(§1) The antimicrobial efficacy was determined by a paper diffusion method drug sensitivity test.
(§2) Experimental strains: multi-resistant Staphylococcus aureus 171, multi-resistant Staphylococcus aureus 575, multi-resistant Staphylococcus aureus 596. The experimental strains were provided by Huashan Hospital Affiliated to Fudan University (Institute of Antibiotic of Fudan University).
(§3) Drug sensitive paper: The drug sensitive paper is a special drug sensitive paper with a diameter of 6.35 mm and a water absorption of 0.02 mL. The control drug was vancomycin (30 μg/tablet); the test drug was pleuromutilin 2-[(diphenylmethyl)thio]acetic acid ester (30 μg/tablet).
(§4) The experimental strains were inoculated in non-selective medium and placed in air at 37° C. for 24 h. Pick a single colony that grows well and inoculate it into broth medium, incubate at 35° C.±2° C. for 6 hours, and use LA broth medium to calibrate the concentration of the bacterial solution to 0.5 Mie turbidimetric tube ([…]). A bacterial suspension is obtained.
(§5) LB dry powder was weighed, sterilized at 103.4 Kpa, 121.3° C. high-pressure steam for 15 min, and then placed it in a 40° C.-50° C. water bath. A sterile empty plate (inner diameter 9 cm) was placed on the surface of the ultra-clean table water table, and […] to the plate. The thickness of each plate was 3 mm to 4 mm. After the plate was cooled at room temperature, it was stored in the refrigerator at 2° C.-8° C. A sterile cotton swab was used to dip the bacterial solution and to evenly coat the surface of the LB plate 3 times. After inoculation of the bacterial suspension, the LB plate was dried at room temperature for 3 min to 5 min. Sterile forceps were used to closely attach the antibacterial drug paper to the dish. The dish was put upside down and placed in a 37° C. incubator for 24 h. The results were observed by measuring the diameter. Taking 0.5% DMSO solution as a negative control, the antibacterial activity is expressed by the diameter of the inhibition zone. The inhibition zone ≥17 mm, sensitive; the inhibition zone of 15 mm-16 mm, intermediary; the inhibition zone ≤14 mm, drug resistance.

Assay [2] deals with MRSA 18-575 (multi-resistant Staphylococcus aureus 575). Briefly: Paper diffusion method drug sensitivity test, MRSA 18-575. Here is the method:
as §1, §2, §3, §4, §5

For assay [3], the system named is MRSA 18-596 (multi-resistant Staphylococcus aureus 596). The assay is described as follows: Paper diffusion method drug sensitivity test, MRSA 18-596. Here is the method: as §1, §2, §3, §4, §5

For the compound `C=C[C@]1(C)C[C@@H](OC(=O)COC(=O)CSC(c2ccccc2)c2ccccc2)[C@]2(C)[C@H](C)CC[C@]3(CCC(=O)[C@H]32)[C@@H](C)[C@@H]1O`, the Zone of inhibition is on record as 21 mm in assay [1], 23 mm in assay [2] and 25 mm in assay [3]. In addition, the “Inhibitory effect (in words)” value in assay [1], in assay [2] and in assay [3] was “strong inhibitory effects” throughout.
Regarding `O=C(O)CSC(c1ccccc1)c1ccccc1` [2-[(Diphenylmethyl)thio]acetic acid], the Zone of inhibition in assay [1], in assay [2] and in assay [3] was 0 mm each time. The “Inhibitory effect (in words)” value in assay [1], in assay [2] and in assay [3] was “no inhibitory effect” throughout.
With `C=C[C@]1(C)C[C@@H](OC(=O)CO)[C@]2(C)[C@H](C)CC[C@]3(CCC(=O)[C@H]32)[C@@H](C)[C@@H]1O` [Pleuromutilin], the Zone of inhibition in assay [1], in assay [2] and in assay [3] was 0 mm each time. Further, the “Inhibitory effect (in words)” value in assay [1], in assay [2] and in assay [3] was “no inhibitory effect” each time.
Consider `CN[C@H](CC(C)C)C(=O)N[C@H]1C(=O)N[C@@H](CC(N)=O)C(=O)N[C@H]2C(=O)N[C@H]3C(=O)N[C@H](C(=O)N[C@H](C(=O)O)c4cc(O)cc(O)c4-c4cc3ccc4O)[C@H](O)c3ccc(c(Cl)c3)Oc3cc2cc(c3O[C@@H]2O[C@H](CO)[C@@H](O)[C@H](O)[C@H]2O[C@H]2C[C@](C)(N)[C@H](O)[C@H](C)O2)Oc2ccc(cc2Cl)[C@H]1O` [Vancomycin, vancomycin], for which the Zone of inhibition in assay [1] turned out to be 17 mm; in assay [2] it was 18 mm; in assay [3], 21 mm.
